Literature values, collected in publication PMC4654502, “Early Gelatinase Activity Is Not a Determinant of Long-Term Recovery after Traumatic Brain Injury in the Immature Mouse” (PLoS ONE, 2015).

Key:
TBI in adult mice = details: 25 mg/kg; cited from earlier work
[1] = test system: fluid-percussion injury in adult rats; details: cited from earlier work
[2] = test system: adult models of ischemic stroke; parameters: method as in PMID 22587708; details: cited from earlier work
HI injury in rats at p21 = test system: HI injury in rats at p21; parameters: method as in PMID 23171520; details: i.p. 50 mg/kg at 30 min, 6 h and 12 h after HI; cited from earlier work
HI in p7 rat pups = details: cited from earlier work

Structure (SMILES) | functional and neuropathological outcomes after TBI in adult mice (TBI in adult mice) | behavioral and cognitive deficits after TBI [1] | hippocampal neurons after TBI [1] | behavioral and cognitive consequences of ischemic stroke [2] | infarct volumes [2] | neuroprotection after HI injury (HI injury in rats at p21) | pro-MMP-9 after acute treatment (HI injury in rats at p21) | acute cell death after HI (HI in p7 rat pups) | ipsilateral brain tissue loss after HI (HI in p7 rat pups)
O=S(=O)(CC1CS1)c1ccc(Oc2ccccc2)cc1 (stereo not drawn) [SB-3CT] | effective at improving functional and neuropathological outcomes | rescued behavioral and cognitive deficits | preserved hippocampal neurons | ameliorate behavioral and cognitive consequences | reduce infarct volumes | failed to render significant neuroprotection | a reduction in pro-MMP-9 |  | 
CNC(=O)[C@H](Cc1c[nH]c2ccccc12)NC(=O)[C@@H](CC(=O)NO)CC(C)C [GM6001] |  |  |  |  |  |  |  | amelioration of acute cell death | preservation of ipsilateral brain tissue loss
